Patent US8518965B2, “Compositions and methods for treating cancer” (Trustees of Dartmouth College, priority 2009, dated 2013)

What was measured:
[1] = test system: HCT116 human colon cancer xenografts; assay: In vivo efficacy, HCT116 xenografts in nude mice; parameters: species or system nude mice (nu/nu genotype); conditions: single i.p. injection
Protocol: This in vivo anticancer efficacy study was performed on nude mice (nu/nu genotype) bearing HCT116 human colon cancer xenografts. These human tumors grew exponentially following implantation into the flanks of the mice and reached a diameter of 3 mm. Treatment was initiated at that time, with the first day of treatment designated as day 0 for all calculations and plots. […] Mice in the control group, bearing 3 mm diameter tumors, were treated with vehicle alone. After treatment, tumor sizes were measured by caliper every day. Daily measurement of the tumor diameters (d1, d2) in two orthogonal directions was used to calculate the tumor volume (tumor volume=π/6{(d1+d2)/2}^3) using the approximation that the tumors were spherical. The values of time (days) required to grow the tumor to the size of 1,000 cu. mm after various treatments and tumor growth delay percentage were calculated for evaluating the treatment effects. Survival times and tumor inhibitory effects on day 20 after treatment were also observed and recorded.

[2] = test system: NCI/ADR-RES human breast cancer cells; assay: Colony formation assay, NCI/ADR-RES cells; type: cell-based; conditions: 72 hours with compound, colonies counted after 14 days
Protocol: NCI/ADR-RES human breast cancer cells (500 cells), HCT116 human colon cancer cells (400 cells) or SF 295 human glioblastoma cells (1000 cells) were plated in 60 mm Petri dishes containing 2.7 ml of medium (modified McCoy's 5a medium containing 10% fetal bovine serum and 100 units/ml penicillin and 100 μg/ml streptomycin). The cells were incubated in a CO2 incubator at 37° C. for 5 hours for attachment to the bottom of Petri dishes. Compounds were prepared fresh in medium at ten times the final concentration, and then 0.3 ml of this stock solution was added to the 2.7 ml of medium in the dish. The cells were then incubated with compounds for 72 hours at 37° C. At the end of incubation, the compound-containing media were decanted, the dishes were rinsed with 4 ml of Hank's Balance Salt Solution (HBSS), 5 ml of fresh medium was added, and the dishes were returned to the incubator for colony formation. The cell colonies were counted using a colony counter after incubation for 14 days for NCI/ADR-RES cells and 10 days for HCT116 cells and SF 295 cells. Cell survival was calculated and the IC50 values (the drug concentration producing 50% inhibition of colony formation) were determined for each tested compound.

[3] = State of stock and injection solutions in water + co-solvents; type: physicochemical
Protocol: The solubility of D11B in various combinations of solvents was also analyzed. […] For the analysis of co-solvents, stock solutions were prepared by dissolving D11B in a corresponding solvent. Stock solutions of D11B in dimethylsulfoxide (DMSO) were prepared at 25° C., and stock solutions of D11B in PEG-400, CREMOPHOR® EL and Polysorbate 80 were prepared at 100° C. Injection solutions, in water (0.3 mg/ml), were prepared by dropwise addition of the stock solution to a required volume of vigorously stirred hot water (80° C.).
Additional solubility determinations were carried out with D11B×2AH in water+co-solvents. For this analysis, stock solutions were prepared by dissolving D11B×2AH in a corresponding solvent. Stock solutions of D11B×2AH in DMSO were prepared at 25° C. and stock solutions of D11B×2AH in PEG-400 were prepared at 100° C.
Injection solutions in water (0.3 mg/ml) were prepared by dropwise addition of each stock solution to a required volume of vigorously stirred water.

SMILES: c1ccc2c(Nc3ccc(Oc4ccc(Nc5c6ccccc6nc6ccccc56)cc4)cc3)c3ccccc3nc2c1 [Compound D11B]
- Mean survival time ([1]; control group 19.7 days): 40.5 days
- Tumor growth delay percentage ([1]; time for growth up to the tumor volume of 1,000 cu. mm): 131%
- Inhibition ratio ([1]; tumor growth on day 20 after drug administration): 4.65
- IC50 [2]: 1310 nM
- State of the stock solution ([3]; D11B in DMSO, 20 mg/ml): clear
- State of the stock solution ([3]; D11B in DMSO, 30 mg/ml): clear
- State of the stock solution ([3]; D11B in DMSO, 40.5 mg/ml): clear
- State of the stock solution ([3]; D11B in DMSO, 50 mg/ml): clear
- State of the stock solution ([3]; D11B in DMSO, 70 mg/ml): clear
- State of the stock solution ([3]; D11B in DMSO, 100 mg/ml): clear
- State of the injection solution ([3]; D11B in H2O-CREMOPHOR EL, 0.3 mg/ml, CREMOPHOR EL 1 wt. %): clear
- State of the injection solution ([3]; D11B in H2O-PEG-400 0.3 mg/ml, stock 12 mg/ml, PEG-400 2.82 wt. %): clear^b
- State of the injection solution ([3]; D11B in H2O-PEG-400 0.3 mg/ml, stock 20 mg/ml, PEG-400 1.7 wt. %): clear^a
- State of the injection solution ([3]; D11B in H2O-Polysorbate 80, 0.3 mg/ml, Polysorbate 80 1 wt. %): clear
- State of the injection solution ([3]; D11B in H2O—DMSO 0.3 mg/ml, stock 20 mg/ml, DMSO 1.65 wt. %): clear
- State of the injection solution ([3]; D11B in H2O—DMSO 0.3 mg/ml, stock 30 mg/ml, DMSO 1.1 wt. %): clear
- State of the injection solution ([3]; D11B in H2O—DMSO 0.3 mg/ml, stock 40.5 mg/ml, DMSO 0.83 wt. %): clear
- State of the injection solution ([3]; D11B in H2O—DMSO 0.3 mg/ml, stock 50 mg/ml, DMSO 0.66 wt. %): clear
- State of the injection solution ([3]; D11B in H2O—DMSO 0.3 mg/ml, stock 70 mg/ml, DMSO 0.47 wt. %): clear
- State of the injection solution ([3]; D11B in H2O—DMSO 0.3 mg/ml, stock 100 mg/ml, DMSO 0.33 wt. %): clear
- State of the stock solution ([3]; D11B in PEG-400, 12 mg/ml): clear
- State of the stock solution ([3]; D11B in PEG-400, 20 mg/ml): gel
- State of the stock solution ([3]; D11B in PEG-400, 40 mg/ml): gel
- State of the stock solution ([3]; D11B in Polysorbate 80, 32.25 mg/ml): clear
